Results on three substances are retold here after patent US8778340B2, “Anti-angiogenesis therapy for the treatment of ovarian cancer” (priority 2010, dated 2014).

Data set [1] relates to newly diagnosed high risk FIGO stage I-IIa and stage IIb-IV epithelial ovarian, fallopian tube or primary peritoneal cancer. Nature of the data set: ICON7 phase III randomized two-arm trial of adding bevacizumab to carboplatin and paclitaxel (Example 2). The class given is in vivo, human. To be noted: for PFS hazard ratio (HR) (95% CI): CPB7.5+ versus CP, Log-Rank Test p 0.0010. An excerpt:
Results are presented from a phase III randomized study (ICON7) to evaluate the safety and efficacy of adding bevacizumab to standard chemotherapy with carboplatin and paclitaxel. The primary endpoint was to determine whether the addition of bevacizumab to standard chemotherapy improves progression free survival (PFS) when compared to standard chemotherapy alone in women with newly diagnosed, histologically confirmed, high risk International Federation of Gynaecology and Obstetrics (FIGO) stage I and IIa (Grade 3 or clear cell carcinoma only) and FIGO stage IIb-IV (all grades and all histological types) epithelial ovarian, fallopian tube or primary peritoneal cancer, who have undergone initial surgery (either debulking cytoreductive surgery or a biopsy if the patient has FIGO stage IV disease) and who would not be considered for cytoreductive surgery prior to disease progression. Secondary endpoints included overall survival (OS), response rate, duration of response, biological progression free interval (defined by increasing CA 125 or PFIBIO), safety and quality of life. ICON7 was a 2-arm randomized clinical trial comparing standard therapy (carboplatin and paclitaxel) with one investigational arm incorporating bevacizumab in combination with paclitaxel and carboplatin (see FIG. 8). A total of 1528 eligible women participated in the trial.
ICON7 included patients with newly diagnosed, histologically confirmed, high risk FIGO stage I and IIa (Grade 3 or clear cell carcinoma only) and FIGO stage IIb-IV (all grades and all histological types) epithelial ovarian, fallopian tube or primary peritoneal cancer, who have undergone initial surgery (either debulking cytoreductive surgery or a biopsy if the patient has FIGO stage IV disease) and who will not be considered for cytoreductive surgery prior to disease progression. Patients with measurable and non-measurable disease are eligible. Patients were considered eligible for enrollment in this trial if they fulfilled all the inclusion criteria and none of the exclusion criteria as described below:
Tumor assessments, either by CT or MRI scan, with measurements using the RECIST criteria, were performed after three and six cycles of chemotherapy, and at around nine months and 12 months in the first year, or after cycle 12 and cycle 18 of treatment for patients on the research arm. In the second and third year of the trial tumour assessments were repeated every six months and thereafter as clinically indicated. These scans were performed irrespective of whether the patient has been optimally or sub-optimally debulked, and irrespective of whether there is measurable disease, or not, on the baseline scan.
Patients were clinically assessed and CA 125 measured at the start of every chemotherapy cycle and then six weekly during the first year of the trial. In the second and third year of the trial patients were assessed and CA 125 measured every three months. In the fourth and fifth year patients were clinically assessed and CA 125 measured every six months. Thereafter assessments were yearly. Progression based on CA 125 criteria alone were verified with a CT scan. If this was negative then it was repeated at the time of suspected clinical progression.
Regular physical examination and routine blood tests were performed during treatment to monitor patient safety. Quality of life (QoL) were assessed using the EORTC QLQ C-30+OV-28 and EQ-5D questionnaires at the start of every chemotherapy cycle, every six weeks until the end of the first year and then every three months until treatment for progression commenced, or to the end of year two. An additional QoL form was completed by all patients still alive three years after randomisation. Adverse events and medical resource use were documented during the study treatment and follow-up period.

Data set [2] has as its system platinum-sensitive recurrent epithelial ovarian, primary peritoneal, or fallopian tube carcinoma. Nature of the data set: OCEANS phase III placebo-controlled trial of carboplatin and gemcitabine plus bevacizumab (Example 3). The class given is in vivo, human. Here is the method:
This example describes a placebo-controlled, randomized, multicenter Phase III study evaluating the efficacy and safety of bevacizumab (15 mg/kg, Day 1, every 21 days), administered in combination with carboplatin (area under the curve [AUC] 4, Day 1, every 21 days) with gemcitabine (1000 mg/m2, Day 1 and Day 8, every 21 days) in women with platinum sensitive recurrent epithelial ovarian, primary peritoneal, or fallopian tube carcinoma. About 480 patients were enrolled over a period of approximately 2.5 years. Patients were randomized in either carboplatin and gemcitabine with placebo versus carboplatin and gemcitabine with bevacizumab. […]
This phase III study of bevacizumab plus chemotherapy in women with ovarian cancer met its primary endpoint. […] PFS is defined as the time from randomization to disease progression as determined by the investigator or death due to any cause, whichever occurs first. The primary endpoint of PFS was assessed by the study investigators. Measurable disease was investigator assessed using modified RECIST (Therasse et al. 2000), e.g., every 9 weeks throughout the course of the study. […]

In data set [3] the test system is platinum resistant ovarian cancer or primary peritoneal serous cancer. To be noted: same dose and schedule as GOG 170-D; 44 patients; cited from earlier work.
Data set [4] relates to persistent or recurrent epithelial ovarian cancer or primary peritoneal cancer. To be noted: 15 mg/kg every 21 days, cited from earlier work.
Data set [5] deals with newly diagnosed, previously untreated, stage III or IV epithelial ovarian, primary peritoneal or fallopian tube cancer. Nature of the data set: Phase III trial of carboplatin and paclitaxel plus placebo versus plus concurrent bevacizumab versus plus concurrent and extended bevacizumab (Example 1, GOG 0218). The data set is classed as in vivo, human. To be noted: preliminary assessment of safety.
Text: Primary Objectives include to determine if the addition of 5 concurrent cycles of bevacizumab to 6 cycles of standard therapy (carboplatin and paclitaxel) [Arm II] increases the duration of progression-free survival (PFS) when compared to 6 cycles of standard therapy alone [Arm I] in women with newly diagnosed stage III (with any gross residual disease) and stage IV, epithelial ovarian, peritoneal primary or fallopian tube cancer; and, to determine if the addition of 5 concurrent cycles of bevacizumab plus extended bevacizumab for 16 cycles beyond the 6 cycles of standard therapy (carboplatin and paclitaxel) [Arm III] increases progression-free survival when compared to 6 cycles of standard therapy [Arm I] in women with newly diagnosed stage III (with any gross residual disease) and stage IV, epithelial ovarian, peritoneal primary or fallopian tube cancer.
In this study two experimental arms were selected to compare with standard cytotoxic chemotherapy with paclitaxel and carboplatin: one incorporating 5 cycles of bevacizumab (concurrent bevacizumab) and the other with bevacizumab for an additional 16 cycles after completion of chemotherapy with paclitaxel and carboplatin (extended bevacizumab). Calvert Formula for Carboplatin (AUC) Dosing: Total dose(mg)=target AUC(in mg/mL/minute)*[GFR(in mL/minute)+25]. […]

Turning to “CPB7.5+: ICON7 chemotherapy plus bevacizumab arm (Arm B), bevacizumab continued as maintenance for a total duration of 12 months”, in data set [1], the “PFS hazard ratio (HR) (95% CI)” value was 0.79 (0.68; 0.91). Further, the “PFS hazard ratio (HR) (95% CI)” value in data set [1] (listed as paclitaxel, carboplatin and anti-VEGF antibody) is on record as 0.79. Moreover, in data set [1] (number of patients (percent)), the “All Deaths” value is recorded as 107 (14.3%), the “All Related Deaths” value is 5 (0.7%), the “Deaths not due to Progression” value was 19 (2.5%) and the “Pts w. Grade 3/4/5 AE” value is reported as 479 (64.2%). For the same substance, in data set [1] (number of patients (percent)), the “Pts w. Serious AE” value is 279 (37.4%), the “Pts who Disc. Any Treatment” value is reported as 293 (39.3%) and the “Pts who Disc. Any Treatment due to AE” value is on record as 162 (21.7%). The PFS median in data set [1] (primary analysis of PFS) turned out to be 18.3 months. Besides, the “difference in median PFS” value in data set [1] (versus paclitaxel and carboplatin alone) stood at 2.3 months.
As to “bevacizumab plus chemotherapy: OCEANS: Avastin 15 mg/kg with carboplatin and gemcitabine, followed by Avastin alone until disease progression”, in data set [2] (investigator assessed, modified RECIST, followed by bevacizumab alone until disease progression), the “progression-free survival compared to chemotherapy alone” value is “increased”.
As for “bevacizumab: recombinant humanized anti-VEGF monoclonal antibody; human IgG1 framework with CDRs from murine antibody A.4.6.1”, in data set [1] (in vivo), the “preliminary assessment of adverse events” value is reported as “consistent with previous studies”. In addition, in data set [3], the “progression-free for at least 6 months” value is listed as 27% and the responses is reported as 16%. Besides, in data set [2] (in vivo), the “safety findings / adverse events” value was “No new safety findings were observed”. For the same substance, the response rate in data set [4] (NCI RECIST) is listed as 21%. In data set [4], the “median PFS” value was 4.7 months and the “progression-free for at least 6 months” value is 40%. Further, in data set [5], the “tolerability of the treatment regimen / adverse events” value is reported as “generally well tolerated”.
